Results as given in patent US20200278355A1, “CONJUGATED PROTEINS AND USES THEREOF” (THE SCRIPPS RESEARCH INSTITUTE, priority 2017, published 2020).

Target: T1, SCP2 (Homo sapiens, UniProt P22307)
T1 construct: H460 cells or H460 cells expressing luciferase in a 10 cm plate were incubated with indicated compounds; endogenous in cells; host or cells: H460
Assay: isoTOP-ABPP of compound-treated H460 cells: SCP2
Type: cell-based
Details: SCP2 C94; 40 μM
Description: For analysis of NR0B1 ligands or control compound reactivity, H460 cells or H460 cells expressing luciferase in a 10 cm plate were incubated with indicated compounds in serum/dye-free RPMI for 3 hours at 37° C. Cells were washed once ice-cold PBS and lysed in 1% Triton X-100 dissolved in PBS with protease inhibitors (Sigma) by sonication. Samples were clarified by centrifugation for 10 min at 16,000×g. Lysate was adjusted to 1.5 mg ml^−1 in 500 μL.
Samples were labeled for 1 h at ambient temperature with 100 μM iodoacetamide alkyne (1, IA-alkyne, 5 μL of 10 mM stock in DMSO). Samples were conjugated by copper-catalyzed azide-alkyne cycloaddition (CuAAC) to isotopically labeled, TEV-cleavable tags (TEV-tags). Heavy CuAAC reaction mixtures was added to the DMSO-treated or shGFP control samples and light CuAAC reaction mixture was added to compound-treated or shNRF2 samples. The CuAAC reaction mixture consisted of TEV tags (light or heavy, 10 μL of 5 mM stocks in DMSO, final concentration=100 μM), 1 mM tris(2-carboxyethyl)phosphine hydrochloride (TCEP; fresh 50× stock in water, final concentration=1 mM), ligand (17× stock in DMSO:t-butanol 1:4, final concentration=100 μM) and 1 mM CuSO4 (50× stock in water, final concentration=1 mM). The samples were allowed to react for 1 h at which point the samples were centrifuged (16,000×g, 5 min, 4° C.). […]

T1 sequence (P22307 whole entry): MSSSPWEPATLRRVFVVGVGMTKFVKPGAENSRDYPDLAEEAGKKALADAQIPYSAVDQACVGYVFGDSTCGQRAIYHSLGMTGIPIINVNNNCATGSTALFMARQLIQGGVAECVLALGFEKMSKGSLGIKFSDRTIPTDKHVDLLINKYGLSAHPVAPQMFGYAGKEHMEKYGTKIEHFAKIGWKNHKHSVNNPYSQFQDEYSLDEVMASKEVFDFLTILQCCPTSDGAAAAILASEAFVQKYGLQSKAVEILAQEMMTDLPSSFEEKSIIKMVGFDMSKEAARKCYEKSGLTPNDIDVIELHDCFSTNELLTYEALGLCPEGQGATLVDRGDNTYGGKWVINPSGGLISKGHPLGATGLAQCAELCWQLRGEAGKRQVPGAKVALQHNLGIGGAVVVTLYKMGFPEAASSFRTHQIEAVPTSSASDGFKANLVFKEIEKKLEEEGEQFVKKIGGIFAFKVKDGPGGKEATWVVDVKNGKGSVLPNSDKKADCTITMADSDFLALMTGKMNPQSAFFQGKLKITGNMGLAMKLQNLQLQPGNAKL

Question: Which “BPK-29-competed isoTOP-ABPP analysis” value does the source give for O=C(c1ccc(N2CCOCC2)cc1)N1CCCC(N(Cc2ccccc2)C(=O)CCl)CC1 (stereo not shown) [BPK-29, N-benzyl-2-chloro-N-(1-(4-morpholinobenzoyl)azepan-4-yl)acetamide] here?
Answer: Yes (Competed defined as showing R value ≥ 3.0 at 40 μM of test compound)
